Consider three compounds from ChEMBL document CHEMBL1629620 (Antimicrob Agents Chemother, 2009).

The test deals with Vaccinia virus. The experiment in a line: Antiviral activity against J2R gene deficient Vaccinia virus harboring VVTK::luc infected in HFF assessed as reduction of plaque formation after 3 days. The format is functional, organism-based. Conditions: Orthopoxvirus vaccinia, 72 h.
By EC50 is commonly meant the concentration giving half of the maximal effect. For `O=c1[nH]c(=O)n([C@H]2C[C@H](O)[C@@H](CO)S2)cc1I`, the EC50 amounted to 0.3 µM.

Consider `Nc1ccn(C[C@@H](CO)OCP(=O)(O)O)c(=O)n1.O.O` [CIDOFOVIR], for which the EC50 was 9.4 µM.

For `O=c1[nH]c(=O)n([C@H]2C[C@H](O)[C@@H](CO)O2)cc1I` [IDOXURIDINE], the EC50 stood at 7.1 µM.
